PubChem BioAssay AID1259411 (Chemical Carcinogenesis Research Information System (CCRIS), 2018)
Calls of active or inactive are those of the source. How the calls were made is not given here.

Test system: rodent carcinogenicity bioassays, tumor incidence
Assay: CCRIS carcinogenicity studies
In short: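 NCI-built, expert-reviewed records of carcinogenicity and related test outcomes (mutagenicity, tumor promotion/inhibition) compiled from published and report sources, historical span 1985-2011, not updated.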

`CCN(N=O)C(C)=O` was tested, and the carcinogen call (Species: MOUSE, Strain/Sex: BALB/C/MALE, Route: ORAL, Dose: 0, 1000, 2000 PPM IN DRINKING WATER FOR 2 WK (STUDY DURATION: 52 WK), Dose: 0, 1000, 2000 PPM IN DRINKING WATER FOR 2 WK (STUDY DURATION: 52 WK), Tumor Site: Type of Lesion: LUNG: TUMOR) was “active; positive” and the carcinogen call (Species: RAT, Strain/Sex: WISTAR/MALE, Route: ORAL, Dose: 0, 1000, 2000 PPM IN DRINKING WATER FOR 2 WK (STUDY DURATION: 52 WK), Dose: 0, 1000, 2000 PPM IN DRINKING WATER FOR 2 WK (STUDY DURATION: 52 WK)) was “inactive; negative”.

In the case of `CCOC(=O)N(C)N=O`, the carcinogen call (Species: MOUSE, Route: INTRAPERITONEAL, Tumor Site: Type of Lesion: LUNG) is reported as “active; positive”, the carcinogen call (Species: MOUSE, Route: ORAL, Tumor Site: Type of Lesion: ESOPHAGUS, FORESTOMACH) is reported as “active; positive” and the carcinogen call (Species: RAT, Route: INTRAVENOUS, Tumor Site: Type of Lesion: LUNG) is reported as “active; positive”. For the same compound, the carcinogen call (Species: RAT, Route: ORAL, Tumor Site: Type of Lesion: FORESTOMACH) was “active; positive”, the carcinogen call (Species: RAT, Strain/Sex: F344/FEMALE, Route: GAVAGE, Dose: 0, 0.35, 1.4 MG/ANIMAL IN CORN OIL 1/WK FOR 20 WK (STUDY DURATION: 114 WK), Dose: 0, 0.35, 1.4 MG/ANIMAL IN CORN OIL 1/WK FOR 20 WK (STUDY DURATION: 114 WK), Tumor Site: Type of Lesion: FORESTOMACH: CARCINOMA, ESOPHAGUS: CARCINOMA, PAPILLOMA) was “active; positive” and the carcinogen call (Species: RAT, Strain/Sex: F344/MALE, Route: ORAL, Dose: 20 PPM IN DRINKING WATER FOR 48 WK (STUDY DURATION: 104 WK), Tumor Site: Type of Lesion: FORESTOMACH: PAPILLOMA, SQUAMOUS CELL CARCINOMA) was “active; positive”.

`CC1(C)[C@H](C(=O)O[C@H](C#N)c2cccc(Oc3ccccc3)c2)[C@@H]1C(Br)C(Br)(Br)Br` (some centres undefined) was tested, and the carcinogen call (Species: Mouse, Strain/Sex: Not reported by DPR/Female (60-80/Group), Route: Gavage, Dose: 0, 0.75, 3.0, 10.0 mg/kg/day in corn oil for 104 wk, Dose: 0, 0.75, 3.0, 10.0 mg/kg/day in corn oil for 104 wk) was “inactive; negative”, the carcinogen call (Species: Mouse, Strain/Sex: Not reported by DPR/Male (60-80/Group), Route: Gavage, Dose: 0, 0.75, 3.0, 10.0 mg/kg/day in corn oil for 104 wk, Dose: 0, 0.75, 3.0, 10.0 mg/kg/day in corn oil for 104 wk) was “inactive; negative” and the carcinogen call (Species: Rat, Strain/Sex: Not reported by DPR/Female (60-80/Group), Route: Gavage, Dose: 0, 0.75, 3.0, 12.0 mg/kg/day in corn oil for 104 wk, Dose: 0, 0.75, 3.0, 12.0 mg/kg/day in corn oil for 104 wk) was “inactive; negative”. The carcinogen call (Species: Rat, Strain/Sex: Not reported by DPR/Male (60-80/Group), Route: Gavage, Dose: 0, 0.75, 3.0, 12.0 mg/kg/day in corn oil for 104 wk, Dose: 0, 0.75, 3.0, 12.0 mg/kg/day in corn oil for 104 wk) was “inactive; negative”.

In the case of `Oc1ccc(-c2cc(Cl)c(Cl)c(Cl)c2Cl)cc1`, the carcinogen call (Species: MOUSE, Strain/Sex: BALB/CCRGL/FEMALE, Route: SUBCUTANEOUS, Dose: 40 UG DAILY FOR 5 D BEGINNING 16 HR AFTER BIRTH (STUDY DURATION: 20 MO), Tumor Site: Type of Lesion: MAMMARY GLAND: CARCINOMA (4/30), CERVICOVAGINAL TRACT: CARCINOMA (4/30)) is reported as “active; positive” and the carcinogen call (Species: MOUSE, Strain/Sex: BALB/CCRGL/FEMALE, Route: SUBCUTANEOUS, Dose: 400 UG DAILY FOR 5 D BEGINNING 16 HR AFTER BIRTH (STUDY DURATION: 20 MO), Tumor Site: Type of Lesion: CERVICOVAGINAL TRACT: CARCINOMA (5/24)) is reported as “active; positive”.

With `Cc1ncc[nH]1` the carcinogen call (Species: MOUSE, Strain/Sex: B6C3F1/FEMALE, Route: ORAL (DIET), Dose: 0, 625, 1250, 2500 PPM FOR 105 WKS (STUDY DURATION: 105 WKS), Dose: 0, 625, 1250, 2500 PPM FOR 105 WKS (STUDY DURATION: 105 WKS), Tumor Site: Type of Lesion: LIVER: HEPATOCELLULAR ADENOMA) was “active; positive”, the carcinogen call (Species: MOUSE, Strain/Sex: B6C3F1/MALE, Route: ORAL (DIET), Dose: 0, 625, 1250, 2500 PPM FOR 105 WKS (STUDY DURATION: 105 WKS), Dose: 0, 625, 1250, 2500 PPM FOR 105 WKS (STUDY DURATION: 105 WKS), Tumor Site: Type of Lesion: LIVER: HEPATOCELLULAR ADENOMA OR CARCINOMA, THYROID: FOLLICULAR CELL ADENOMA) was “active; positive” and the carcinogen call (Species: RAT, Strain/Sex: F344/N/FEMALE, Route: ORAL (DIET), Dose: 0, 1000, 2500, 5000 PPM FOR 106 WKS (STUDY DURATION: 106 WKS), Dose: 0, 1000, 2500, 5000 PPM FOR 106 WKS (STUDY DURATION: 106 WKS), Tumor Site: Type of Lesion: THYROID: FOLLICULAR CELL ADENOMA OR CARCINOMA) was “active; positive”. The carcinogen call (Species: RAT, Strain/Sex: F344/N/MALE, Route: ORAL (DIET), Dose: 0, 300, 1000, 3000 PPM FOR 106 WKS (STUDY DURATION: 106 WKS), Dose: 0, 300, 1000, 3000 PPM FOR 106 WKS (STUDY DURATION: 106 WKS)) was “inactive; negative”.

In the case of `O=S(O)S(=O)(=O)O`, the carcinogen call (Species: RAT, Strain/Sex: WISTAR/FEMALE, Route: ORAL, Dose: 0, 0.125, 0.25, 0.5, 1, 2% IN DIET FOR 104 WK (STUDY DURATION: 104 WK), Dose: 0, 0.125, 0.25, 0.5, 1, 2% IN DIET FOR 104 WK (STUDY DURATION: 104 WK)) is reported as “inactive; negative”, the carcinogen call (Species: RAT, Strain/Sex: WISTAR/FEMALE, Route: ORAL, Dose: 0, 0.125, 0.25, 0.5, 1, 2% IN DIET FOR 104 WK TO OFFSPRING OF RATS ADMINISTERED THE SAME DOSES IN THEIR DIETS (STUDY DUR, Dose: 0, 0.125, 0.25, 0.5, 1, 2% IN DIET FOR 104 WK TO OFFSPRING OF RATS ADMINISTERED THE SAME DOSES IN THEIR DIETS (STUDY DUR) is reported as “inactive; negative” and the carcinogen call (Species: RAT, Strain/Sex: WISTAR/MALE, Route: ORAL, Dose: 0, 0.125, 0.25, 0.5, 1, 2% IN DIET FOR 104 WK (STUDY DURATION: 104 WK), Dose: 0, 0.125, 0.25, 0.5, 1, 2% IN DIET FOR 104 WK (STUDY DURATION: 104 WK)) is reported as “inactive; negative”. For the same compound, the carcinogen call (Species: RAT, Strain/Sex: WISTAR/MALE, Route: ORAL, Dose: 0, 0.125, 0.25, 0.5, 1, 2% IN DIET FOR 104 WK TO OFFSPRING OF RATS ADMINISTERED THE SAME DOSES IN THEIR DIETS (STUDY DUR, Dose: 0, 0.125, 0.25, 0.5, 1, 2% IN DIET FOR 104 WK TO OFFSPRING OF RATS ADMINISTERED THE SAME DOSES IN THEIR DIETS (STUDY DUR) was “inactive; negative”.

With `CN(C)CCOc1ccc(/C(=C(/CCCl)c2ccccc2)c2ccccc2)cc1` the carcinogen call (Species: RAT, Strain/Sex: SPRAGUE-DAWLEY/FEMALE, Route: GAVAGE, Dose: 0, 12, 24 MG/KG IN 0.5% CARBOXYMETHYLCELLULOSE 1/D 7 D/WK FOR UP TO 12 MO (STUDY DURATION: 15 MO), Dose: 0, 12, 24 MG/KG IN 0.5% CARBOXYMETHYLCELLULOSE 1/D 7 D/WK FOR UP TO 12 MO (STUDY DURATION: 15 MO)) was “inactive; negative”, the carcinogen call (Species: RAT, Strain/Sex: SPRAGUE-DAWLEY/FEMALE, Route: ORAL, Dose: 0, 0.12, 1.2, 5, 12 MG/KG/D IN DIET FOR DURATION OF STUDY (STUDY DURATION: 104 WK), Dose: 0, 0.12, 1.2, 5, 12 MG/KG/D IN DIET FOR DURATION OF STUDY (STUDY DURATION: 104 WK)) was “inactive; negative” and the carcinogen call (Species: RAT, Strain/Sex: SPRAGUE-DAWLEY/MALE, Route: ORAL, Dose: 0, 0.12, 1.2, 5, 12 MG/KG/D IN DIET FOR DURATION OF STUDY (STUDY DURATION: 104 WK), Dose: 0, 0.12, 1.2, 5, 12 MG/KG/D IN DIET FOR DURATION OF STUDY (STUDY DURATION: 104 WK)) was “inactive; negative”.

For `Cc1ccc(N=CN(C)C=Nc2ccc(C)cc2C)c(C)c1`, the carcinogen call (Species: Mouse, Strain/Sex: B6C3F1/Female, Route: Oral (diet), Dose: 0, 25, 100, 400 ppm in feed for 104 wks, Dose: 0, 25, 100, 400 ppm in feed for 104 wks, Tumor Site: Type of Lesion: Liver: Hepatocellular adenoma/carcinoma (5/80, 1/61, 3/62, 24/56)) was “active; positive (at highest dose)”, the carcinogen call (Species: Mouse, Strain/Sex: B6C3F1/Male, Route: Oral (diet), Dose: 0, 25, 100, 400 ppm in feed for 104 wks, Dose: 0, 25, 100, 400 ppm in feed for 104 wks) was “inactive; negative” and the carcinogen call (Species: Rat, Strain/Sex: Wistar/Female, Route: Oral (diet), Dose: 0, 15, 50, 200 ppm in feed for 104 wks, Dose: 0, 15, 50, 200 ppm in feed for 104 wks) was “inactive; negative; purity 97.8 and 99.8%”. The carcinogen call (Species: Rat, Strain/Sex: Wistar/Male, Route: Oral (diet), Dose: 0, 15, 50, 200 ppm in feed for 104 wks, Dose: 0, 15, 50, 200 ppm in feed for 104 wks) was “inactive; negative; purity 97.8 and 99.8%”.
